Source: US20200055844A1, “4-SULFONYLAMINOCARBONYLQUINOLINE DERIVATIVES FOR INCREASING CFTR ACTIVITY” (Proteostasis Therapeutics, Inc., priority 2017, published 2020)

target: T1, ΔF508-CFTR (Homo sapiens, UniProt P13569, DEL508-508); assay: hBE equivalent current (Ieq) assay; type: cell-based; details: AUC of equivalent chloride current, % of CFTR amplifier (Compound A)+VX-809 (3 uM); compound at 10 uM and Compound A at 3 uM; primary lung epithelial cells homozygous ΔF508, 24 hours treatment
T1 construct: Primary lung epithelial cells homozygous for the Cystic Fibrosis-causing ΔF508 mutation were differentiated; endogenous in cells; host or cells: primary lung (bronchial) epithelial cells (hBE) homozygous for ΔF508, differentiated at an air-liquid interface
T1 sequence (P13569 with tags, fused parts or gaps DEL508-508): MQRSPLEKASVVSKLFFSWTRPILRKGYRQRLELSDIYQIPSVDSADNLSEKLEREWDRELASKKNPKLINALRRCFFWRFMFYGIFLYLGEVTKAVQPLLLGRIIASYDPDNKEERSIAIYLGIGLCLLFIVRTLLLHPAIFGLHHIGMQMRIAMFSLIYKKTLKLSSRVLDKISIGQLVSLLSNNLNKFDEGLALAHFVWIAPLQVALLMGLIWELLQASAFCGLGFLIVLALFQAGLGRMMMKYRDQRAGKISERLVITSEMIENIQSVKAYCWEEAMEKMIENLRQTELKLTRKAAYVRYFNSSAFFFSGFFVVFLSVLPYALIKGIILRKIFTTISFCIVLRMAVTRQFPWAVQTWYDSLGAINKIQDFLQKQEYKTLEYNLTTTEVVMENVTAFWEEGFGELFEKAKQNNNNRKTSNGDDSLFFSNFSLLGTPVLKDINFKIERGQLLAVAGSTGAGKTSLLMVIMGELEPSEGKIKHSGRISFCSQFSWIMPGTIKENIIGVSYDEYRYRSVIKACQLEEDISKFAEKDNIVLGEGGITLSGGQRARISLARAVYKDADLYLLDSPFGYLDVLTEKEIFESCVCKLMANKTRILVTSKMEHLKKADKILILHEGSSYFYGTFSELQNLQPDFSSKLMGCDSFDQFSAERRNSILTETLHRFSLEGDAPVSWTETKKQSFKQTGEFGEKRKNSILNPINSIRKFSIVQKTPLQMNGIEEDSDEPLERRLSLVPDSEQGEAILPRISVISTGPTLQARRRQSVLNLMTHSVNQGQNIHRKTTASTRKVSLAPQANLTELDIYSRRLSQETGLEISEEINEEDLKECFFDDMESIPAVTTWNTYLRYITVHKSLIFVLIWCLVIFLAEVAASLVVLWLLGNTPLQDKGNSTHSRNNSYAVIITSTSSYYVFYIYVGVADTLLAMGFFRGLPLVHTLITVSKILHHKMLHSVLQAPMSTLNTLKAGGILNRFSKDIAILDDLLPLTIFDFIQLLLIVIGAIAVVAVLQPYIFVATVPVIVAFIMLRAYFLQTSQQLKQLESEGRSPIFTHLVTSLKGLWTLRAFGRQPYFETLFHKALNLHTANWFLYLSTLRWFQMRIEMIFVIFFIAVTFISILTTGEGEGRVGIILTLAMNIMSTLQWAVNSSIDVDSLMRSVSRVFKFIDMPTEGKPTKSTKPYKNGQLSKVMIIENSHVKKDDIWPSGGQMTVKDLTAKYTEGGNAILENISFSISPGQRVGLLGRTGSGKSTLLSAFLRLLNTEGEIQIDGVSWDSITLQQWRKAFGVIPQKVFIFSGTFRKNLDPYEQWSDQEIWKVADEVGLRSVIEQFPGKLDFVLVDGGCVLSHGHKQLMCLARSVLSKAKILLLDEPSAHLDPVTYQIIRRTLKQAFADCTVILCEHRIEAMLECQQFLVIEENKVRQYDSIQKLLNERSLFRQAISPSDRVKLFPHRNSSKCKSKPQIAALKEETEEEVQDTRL
Procedure: ii. hBE Equivalent Current (Ieq) Assay
Primary lung epithelial cells homozygous for the Cystic Fibrosis-causing ΔF508 mutation were differentiated for a minimum of 4 weeks in an air-liquid interface on Costar 24 well HTS filter plates prior to the equivalent current (Ieq) measurements. Cells were apically mucus-washed for 30 minutes 24 h prior to treatment with compounds. The basolateral media was removed and replaced with media containing the compound of interest diluted to its final concentration from DMSO stocks. Treated cells were incubated at 37° C. and 5% CO2 for 24 hours. At the end of the treatment period, the media was changed to the Ieq experimental solution for 2 hours before the experiment and plates are maintained in a CO2-free incubator during this period. The plates containing the cells were then placed in pre-warmed heating blocks at 36° C.±0.5 for 15 minutes before measurements are taken. The transepithelial voltage (VT) and conductance (Gr) were measured using a custom 24 channel current clamp (TECC-24) with 24 well electrode manifold. The Ieq assay measurements were made following additions with standardized time periods: • 1. The baseline VT and Gr values were measured for approximately 20 minutes. • 2. Benzamil was added to block ENaC for 15 minutes. • 3. Forskolin plus VX-770 were added to maximally activate ΔF508-CFTR for 27 minutes. • 4. Bumetanide was added to inhibit the NaK2Cl cotransporter and shut-off secretion of chloride.
The activity data captured was the area under the curve (AUC) for the traces of the equivalent chloride current. The AUC was collected from the time of the forskolin/VX-770 addition until the inhibition by bumetanide addition. Correction in response to compound treatment was scored as the increase in the AUC for compound-treated samples over that of vehicle-treated samples.
(+ indicates activity <100% of a CFTR amplifier (Compound A)+VX-809 (3 uM) with compound at 10 uM and Compound A at 3 uM; ++ indicates activity ≥100% and <200% of CFTR amplifier+VX-809 (3 uM) with compound at 10 uM and Compound A at 3 uM; +++ indicates activity >200% of CFTR amplifier+VX-809 (3 uM) with compound at 10 uM and Compound A at 3 uM.

Row | SMILES | Activity
1 | Cc1c(-c2cc(C(=O)NS(=O)(=O)c3ccccc3)c3c(O[C@H](C)c4ccccc4)ccc(C)c3n2)sc2ccccc12 [Compound 9] | ++ (activity ≥100% and <200% of CFTR amplifier+VX-809 (3 uM) with compound at 10 uM and Compound A at 3 uM)
2 | Cc1c(-c2cc(C(=O)NS(=O)(=O)c3cccc(N)n3)c3c(O[C@H](C)c4ccccc4)ccc(C)c3n2)oc2ccccc12 [Compound 12] | ++ (activity ≥100% and <200% of CFTR amplifier+VX-809 (3 uM) with compound at 10 uM and Compound A at 3 uM)
3 | Cc1c(-c2cc(C(=O)NS(C)(=O)=O)c3c(O[C@H](C)c4ccccc4)ccc(C)c3n2)oc2ccccc12 [Compound 2] | +++ (activity >200% of CFTR amplifier+VX-809 (3 uM) with compound at 10 uM and Compound A at 3 uM)
4 | Cc1c(-c2cc(C(=O)NS(=O)(=O)N3CC[C@H](N)C3)c3c(O[C@H](C)c4ccccc4)ccc(C)c3n2)sc2ccccc12 [Compound 15] | ++ (activity ≥100% and <200% of CFTR amplifier+VX-809 (3 uM) with compound at 10 uM and Compound A at 3 uM)
5 | Cc1c(-c2cc(C(=O)NS(=O)(=O)c3cccc(N)c3)c3c(O[C@H](C)c4ccccc4)ccc(C)c3n2)sc2ccccc12 [Compound 13] | +++ (activity >200% of CFTR amplifier+VX-809 (3 uM) with compound at 10 uM and Compound A at 3 uM)
6 | Cc1c(-c2cc(C(=O)NS(=O)(=O)C3CC3)c3c(O[C@H](C)c4ccccc4)ccc(C)c3n2)sc2ccccc12 [Compound 3] | ++ (activity ≥100% and <200% of CFTR amplifier+VX-809 (3 uM) with compound at 10 uM and Compound A at 3 uM)
7 | Cc1c(-c2cc(C(=O)NS(=O)(=O)N3CC[C@H](N)C3)c3c(O[C@H](C)c4ccccc4)ccc(C)c3n2)oc2ccccc12 [Compound 16] | +++ (activity >200% of CFTR amplifier+VX-809 (3 uM) with compound at 10 uM and Compound A at 3 uM)
8 | Cc1c(-c2cc(C(=O)NS(=O)(=O)c3cccc(N)n3)c3c(O[C@H](C)c4ccccc4)ccc(C)c3n2)sc2ccccc12 [Compound 11] | ++ (activity ≥100% and <200% of CFTR amplifier+VX-809 (3 uM) with compound at 10 uM and Compound A at 3 uM)
9 | Cc1c(-c2cc(C(=O)NS(=O)(=O)c3ccccc3)c3c(O[C@H](C)c4ccccc4)ccc(C)c3n2)oc2ccccc12 [Compound 10] | ++ (activity ≥100% and <200% of CFTR amplifier+VX-809 (3 uM) with compound at 10 uM and Compound A at 3 uM)
10 | Cc1c(-c2cc(C(=O)NS(=O)(=O)c3cnc(N)s3)c3c(O[C@H](C)c4ccccc4)ccc(C)c3n2)sc2ccccc12 [Compound 17] | +++ (activity >200% of CFTR amplifier+VX-809 (3 uM) with compound at 10 uM and Compound A at 3 uM)
11 | Cc1c(-c2cc(C(=O)NS(=O)(=O)c3cccc(N)c3)c3c(O[C@H](C)c4ccccc4)ccc(C)c3n2)oc2ccccc12 [Compound 14] | +++ (activity >200% of CFTR amplifier+VX-809 (3 uM) with compound at 10 uM and Compound A at 3 uM)
12 | Cc1c(-c2cc(C(=O)NS(=O)(=O)N3CCOCC3)c3c(O[C@H](C)c4ccccc4)ccc(C)c3n2)sc2ccccc12 [Compound 7] | +++ (activity >200% of CFTR amplifier+VX-809 (3 uM) with compound at 10 uM and Compound A at 3 uM)
13 | Cc1c(-c2cc(C(=O)NS(=O)(=O)C3CC3)c3c(O[C@H](C)c4ccccc4)ccc(C)c3n2)oc2ccccc12 [Compound 4] | ++ (activity ≥100% and <200% of CFTR amplifier+VX-809 (3 uM) with compound at 10 uM and Compound A at 3 uM)
14 | Cc1c(-c2cc(C(=O)NS(=O)(=O)N3CCOCC3)c3c(O[C@H](C)c4ccccc4)ccc(C)c3n2)oc2ccccc12 [Compound 8] | + (activity <100% of a CFTR amplifier (Compound A)+VX-809 (3 uM) with compound at 10 uM and Compound A at 3 uM)
15 | Cc1c(-c2cc(C(=O)NS(C)(=O)=O)c3c(O[C@H](C)c4ccccc4)ccc(C)c3n2)sc2ccccc12 [Compound 1] | +++ (activity >200% of CFTR amplifier+VX-809 (3 uM) with compound at 10 uM and Compound A at 3 uM)
16 | Cc1c(-c2cc(C(=O)NS(=O)(=O)c3cnc(N)s3)c3c(O[C@H](C)c4ccccc4)ccc(C)c3n2)oc2ccccc12 [Compound 18] | + (activity <100% of a CFTR amplifier (Compound A)+VX-809 (3 uM) with compound at 10 uM and Compound A at 3 uM)
